This experiment deals with HIV-IIIb. Kind of experiment: Test A: Antiviral Assay in MT4 Cells. It is filed as cell-based. The following applies: MT-4 cells infected with HIV-IIIb, 5 days of incubation, CellTiter-Glo, read-out: EC50. The method, then:
The antiviral properties of a compound of the invention may be determined using Test A described below.
Test A: Antiviral Assay in MT4 Cells
For the antiviral assay utilizing MT-4 cells, 0.4 μL of […] test concentration of 3-fold serially diluted compound in DMSO was added to 40 μL of cell growth medium (RPMI 1640, 10% FBS, 1% penicilline/Streptomycine, 1% L-Glutamine, 1% HEPES) in each well of 384-well assay plates (10 concentrations) in quadruplicate.
One mL aliquots of 2×10e6 MT-4 cells were pre-infected for 1 and 3 hours respectively, @ 37° C. with 25 uL (MT4) or of either cell growth medium (mock-infected) or a fresh 1:250 dilution of an HIV-IIIb concentrated ABI stock (0.004m.o.i. for MT4 cells). Infected and uninfected cells were diluted in cell growth medium and 35 uL of 2000 (for MT4) cells was added to each well of the assay plates.
Assay plates were then incubated in a 37° C. incubator. After 5 days of incubation, […] of 2× concentrated CellTiter-Glo™ Reagent (catalog #G7573, Promega Biosciences, Inc., Madison, Wis.) was added to each well of the assay plate. Cell lysis was carried out by incubating at room temperature for 2-3 min and then chemiluminescence was read using the Envision reader (PerkinElmer). […]
Background: In ATP-based viability assays light output follows the ATP content of the culture.

Setting [1] is: Human immunodeficiency virus 1, IIIB, MT4, 120 h, Table 2.
Where [2] appears, read: Human immunodeficiency virus 1, IIIB, MT4, 120 h, Table 1.

Read-outs that look alike come from different tables or passages of the source.

As usually defined, the EC50 is the concentration giving half of the maximal effect. `Cc1cc2nc(-c3ccc4c(N5CCN(C)CC5)nn(C)c4c3)sc2c(-c2ccc(Cl)cc2)c1[C@H](OC(C)(C)C)C(=O)O` [Compound 259, (S)-2-tert-butoxy-2-(7-(4-chlorophenyl)-5-methyl-2-(1-methyl-3-(4-methylpiperazin-1-yl)-1H-indazol-6-yl)benzo[d]thiazol-6-yl)acetic acid]: the EC50 under setting [1] was 12 nM. Regarding `Cc1cc2nc(-c3ccnc(N4CC[C@H](N(C)C)C4)n3)sc2c(-c2ccc(Cl)cc2)c1[C@H](OC(C)(C)C)C(=O)O` [Compound 478, (S)-2-tert-butoxy-2-(7-(4-chlorophenyl)-2-(2-((S)-3-(dimethylamino)pyrrolidin-1-yl)pyrimidin-4-yl)-5-methylbenzo[d]thiazol-6-yl)acetic acid], the EC50 under setting [1] was 4 nM. For the compound `Cc1cc2nc(-c3ccnc(-c4ccc5c(cnn5C(F)(F)F)c4)c3)sc2c(-c2ccc(Cl)cc2)c1[C@H](OC(C)(C)C)C(=O)O` [Compound 178, (S)-2-tert-butoxy-2-(7-(4-chlorophenyl)-5-methyl-2-(2-(1-(trifluoromethyl)-1H-indazol-5-yl)pyridin-4-yl)benzo[d]thiazol-6-yl)acetic acid], the EC50 under setting [1] was determined as 89 nM.

Regarding `Cc1cc2nc(-c3ccnc(-c4ccc5ccn(C)c(=O)c5c4)c3)sc2c(-c2ccc(Cl)cc2)c1[C@H](OC(C)(C)C)C(=O)O` [Compound 448], the 50% effective concentration (EC50) under setting [1] is 9 nM. In the case of `Cc1cc2nc(-c3ccnc(-n4ccn5cccc5c4=O)c3)sc2c(-c2ccc(Cl)cc2)c1[C@H](OC(C)(C)C)C(=O)O` [Compound 460], under setting [1], the EC50 amounted to 31 nM. Regarding `Cc1cc2nc(-c3ccc4c(c3)c(N)nn4C)sc2c(-c2ccc(Cl)cc2)c1[C@H](OC(C)(C)C)C(=O)O` [Compound 133], the EC50 under setting [2] was found to be 18 nM. As for `Cc1cc2nc(-c3ccc(-c4cnc(=O)[nH]c4)cc3)sc2c(-c2ccc(Cl)cc2)c1[C@H](OC(C)(C)C)C(=O)O` [Compound 356], the EC50 under setting [1] amounted to 3330 nM. Consider `Cc1cc2nc(-c3ccnc(-n4ccc5ccncc5c4=O)c3)sc2c(-c2ccc(Cl)cc2)c1[C@H](OC(C)(C)C)C(=O)O` [Compound 458], for which the concentration giving a half-maximal response (EC50) under setting [1] was 5 nM. `Cc1cc2nc(N3CCO[C@H](c4ccc5c(cnn5C)c4)C3)sc2c(-c2ccc(Cl)cc2)c1[C@H](OC(C)(C)C)C(=O)O` [Compound 325, (S)-2-tert-butoxy-2-(7-(4-chlorophenyl)-5-methyl-2-((R)-2-(1-methyl-1H-indazol-5-yl)morpholino)benzo[d]thiazol-6-yl)acetic acid]: the EC50 under setting [1] was found to be 10 nM. As to `Cc1cc2nc(-c3ccc4c(c3)nc(C(C)C)n4C)sc2c(-c2ccc(Cl)cc2)c1[C@H](OC(C)(C)C)C(=O)O` [Compound 411], the EC50 under setting [1] came to 8 nM. For the compound `Cc1cc2nc(-c3ccc4nc(C)n(C5CN(C)C5)c4c3)sc2c(-c2ccc(Cl)cc2)c1[C@H](OC(C)(C)C)C(=O)O` [Compound 297, (S)-2-tert-butoxy-2-(7-(4-chlorophenyl)-5-methyl-2-(2-methyl-1-(1-methylazetidin-3-yl)-1H-benzo[d]imidazol-6-yl)benzo[d]thiazol-6-yl)acetic acid], the EC50 under setting [1] worked out at 17 nM.

Consider `Cc1cc2nc(-c3nccc(N4CCN(C)CC4)n3)sc2c(-c2ccc(Cl)cc2)c1[C@H](OC(C)(C)C)C(=O)O` [Compound 281, (S)-2-tert-butoxy-2-(7-(4-chlorophenyl)-5-methyl-2-(4-(4-methylpiperazin-1-yl)pyrimidin-2-yl)benzo[d]thiazol-6-yl)acetic acid], for which the EC50 under setting [1] came to 31 nM. On to `Cc1cc(C)n(-c2cccc(-c3nc4cc(C)c([C@H](OC(C)(C)C)C(=O)O)c(-c5ccc(Cl)cc5)c4s3)c2)n1` [Compound 272, (S)-2-tert-butoxy-2-(7-(4-chlorophenyl)-2-(3-(3,5-dimethyl-1H-pyrazol-1-yl)phenyl)-5-methylbenzo[d]thiazol-6-yl)acetic acid], for which the half-maximal effective concentration (EC50) under setting [1] came to 78 nM. With `Cc1cc2nc(-c3ccnc(-n4ncc5ccccc54)c3)sc2c(-c2ccc(Cl)cc2)c1[C@H](OC(C)(C)C)C(=O)O` [Compound 189, (S)-2-(2-(2-(1H-indazol-1-yl)pyridin-4-yl)-7-(4-chlorophenyl)-5-methylbenzo[d]thiazol-6-yl)-2-tert-butoxy acetic acid], under setting [1], the EC50 was determined as 249 nM. For `Cc1cc2nc(N3CCc4c(c(C)nn4C)C3)sc2c(-c2ccc(Cl)cc2)c1[C@H](OC(C)(C)C)C(=O)O` [Compound 441], the EC50 under setting [1] came to 4 nM.

For `Cc1cc2nc(-c3ccnc(-c4ccc5nn(C)cc5n4)c3)sc2c(-c2ccc(Cl)cc2)c1[C@H](OC(C)(C)C)C(=O)O` [Compound 370], under setting [1], the concentration for a half-maximal effect (EC50) was 4 nM. As for `Cc1cc2nc(N3CC(F)(F)C3)sc2c(-c2ccc3c4c(ccnc24)CCO3)c1[C@H](OC(C)(C)C)C(=O)O` (atropisomer, axis not shown) [Compound 53, (S)-2-tert-butoxy-2-((R)-2-(3,3-difluoroazetidin-1-yl)-7-(2,3-dihydropyrano[4,3,2-de]quinolin-7-yl)-5-methylbenzo[d]thiazol-6-yl)acetic acid], under “Table 1”, the EC50 worked out at 37500 nM.

Consider `Cc1cc2nc(-c3cc4cn(C)nc4cn3)sc2c(-c2ccc(Cl)cc2)c1[C@H](OC(C)(C)C)C(=O)O` [Compound 364], for which, under setting [1], the EC50 turned out to be 9 nM. As for `Cc1cc2nc(N3CC(S(C)(=O)=O)C3)sc2c(-c2ccc3c4c(ccnc24)CCO3)c1[C@H](OC(C)(C)C)C(=O)O` (atropisomer, axis not shown) [Compound 58, (S)-2-tert-butoxy-2-((S)-7-(2,3-dihydropyrano[4,3,2-de]quinolin-7-yl)-5-methyl-2-(3-(methylsulfonyl)azetidin-1-yl)benzo[d]thiazol-6-yl)acetic acid], the half-maximal effective concentration (EC50) under setting [2] is 3520 nM. Take `Cc1cc2c(c(-c3ccc(Cl)cc3)c1[C@H](OC(C)(C)C)C(=O)O)n(C1CCN(C)CC1)c(=O)n2C` [Compound 181, (S)-2-tert-butoxy-2-(4-(4-chlorophenyl)-1,6-dimethyl-3-(1-methylpiperidin-4-yl)-2-oxo-2,3-dihydro-1H-benzo[d]imidazol-5-yl)acetic acid]: under setting [1], the EC50 stood at 27 nM. As to `Cc1cnc(-c2ccc3c(cnn3C)c2)cc1-c1nc2cc(C)c([C@H](OC(C)(C)C)C(=O)O)c(-c3ccc(Cl)cc3)c2s1` [Compound 289, (S)-2-(tert-butoxy)-2-(7-(4-chlorophenyl)-5-methyl-2-(5-methyl-2-(1-methyl-1H-indazol-5-yl)pyridin-4-yl)benzo[d]thiazol-6-yl)acetic acid], the EC50 under setting [1] was 25 nM. As for `Cc1cc2nc(-c3ccnc(-c4cc5c(C)nn(C)c5cn4)c3)sc2c(-c2ccc(Cl)cc2)c1[C@H](OC(C)(C)C)C(=O)O` [Compound 234, (S)-2-tert-butoxy-2-(7-(4-chlorophenyl)-2-(2-(1,3-dimethyl-1H-pyrazolo[3,4-c]pyridin-5-yl)pyridin-4-yl)-5-methylbenzo[d]thiazol-6-yl)acetic acid], under setting [1], the EC50 came to 13 nM. Take `CCC(CC)N1CCN(c2nccc(-c3nc4cc(C)c([C@H](OC(C)(C)C)C(=O)O)c(-c5ccc(Cl)cc5)c4s3)n2)CC1` [Compound 464, (S)-2-tert-butoxy-2-(7-(4-chlorophenyl)-5-methyl-2-(2-(4-(pentan-3-yl)piperazin-1-yl)pyrimidin-4-yl)benzo[d]thiazol-6-yl)acetic acid]: the concentration giving a half-maximal response (EC50) under setting [1] stood at 12 nM. `Cc1cc2nc(-c3cnc4cn(C)nc4c3)sc2c(-c2ccc(Cl)cc2)c1[C@H](OC(C)(C)C)C(=O)O` [Compound 132]: the EC50 under setting [2] is 12 nM. On to `Cc1cc2nc(-c3cccc(-c4cnn(C(C)C)c4)c3)sc2c(-c2ccc(Cl)cc2)c1[C@H](OC(C)(C)C)C(=O)O` [Compound 151], for which the EC50 under setting [2] came to 32 nM.

For the origin of these results see US8987250B2 (Gilead Sciences, Inc., priority 2012, dated 2015).
